# Measured values reported in patent publication EP2802310B1, “NEW USE OF ZERUMBONE AND COMPOSITIONS COMPRISING ZERUMBONE” (Sederma, priority 2012, dated 2013).
# Where two headings read alike, the source gives them in different places.
# Legend:
# Human preadipocytes [1] = assay: Anti-differentiating effect, intracellular G3PDH activity, human preadipocytes; type: cell-based
# Description: Human preadipocytes were plated and induced to differentiate at confluence in the presence of a cocktail of specific inducers and the evaluated products. After 10 days, the layers were crushed and intracellular G3PDH activity was assayed. A cell quantification test (Hoechst) on the same extracts complements the assay.
# Human preadipocytes [2] = assay: Triglyceride content after preadipocyte differentiation (glycerol released after lipase); type: cell-based; details: 10 days
# Description: Human preadipocytes were plated and induced to differentiate at confluence in the presence of a cocktail of specific inducers and evaluated products. After 10 days, the triglyceride content of the culture was estimated by measuring the released glycerol after the action of a lipase.
# Mature human adipocytes [3] = assay: Lipolytic effect, daily titration of released glycerol over 3 days; type: cell-based; details: Homo sapiens, Adipocyte, Zerumbone 6ppm, read-out: released glycerol, versus negative control
# Description: Mature human adipocytes were treated with zerumbone to evaluate daily for 3 days. A daily titration of the released glycerol, reflecting lipolysis, was measured in the medium, before the media were changed in order to monitor the long-term effect.
# In a second test, mature human adipocytes were treated with the product to evaluate daily for 3 days. A daily titration of the released glycerol was performed in the media, just before changing of the media in order to monitor the long term effect. Table 19: Comparison of the lipolytic effect of caffeine, zerumbone and of a mixture of caffeine and zerumbone on hypertrophied adipocytes in monolayer (n=4) at short and long term.
# Mature human adipocytes [4] = assay: Lipolytic effect, released glycerol after 3 hours; type: cell-based; details: Adipocyte, Zerumbone 6ppm, contact time 3h, read-out: released glycerol, versus negative control
# Description: In a first test, mature human adipocytes were treated with the product to evaluate for 3 hours, then titration of the released glycerol, reflecting lipolysis, was measured in the medium.
# adiponectin = assay: Adiponectin synthesis by ELISA, 3 days contact; type: cell-based, Human
# Description: Human preadipocytes were plated and induced to differentiate at confluence in the presence of a cocktail of specific inducers. After 10 days of differentiation, the cells are purged from inducers in their basis medium and left in contact with the products for 3 days in this medium. After contact, the supernatants were collected and the adiponectin amount was measured by ELISA.
# HO-1 = HO-1 synthesis by ELISA in adipocyte lysates; type: cell-based, Human; details: for activation at 3 ppm / activation at 5 ppm: Homo sapiens, Adipocyte, read-out: [HO-1] % Var / control
# Description: HO-1 enzymes catalyse the degradation of heme into biliverdin, iron, and carbon monoxide. Its overexpression is associated with a decrease in the size of adipocytes in adipose tissue, an increase of adiponectin secretion and a decrease of IL-6 and TNF secretion and is associated with weight loss.
# Human preadipocytes were seeded and induced to differentiate at confluence in the presence of a cocktail of specific inducers and the products to evaluate. After 10 days, the layers were crushed and the HO-1 content was measured in these lysates by ELISA. Furthermore after 10 days of differentiation, matiure adipocytes were placed in contact with the products for 48h and the HO-1 content was also measured in the cellular lysates. In parallel, an estimation of the cell quantification is realized on these two assays (Hoechst test).
# elastin [5] = assay: Elastin fibres in skin explants under NO stress (Verhoeff stain); details: 18 ppm
# Description: Principle: Explants (person, abdominal skin) received a topical cream containing the product of the invention (cream according to above example 1 at 18ppm of zerumbone) or a placebo cream (same cream without zerumbone) for two days. At the same time, the culture medium received 18ppm of zerumbone in a liquid form (or its excipient) to potentiate the effects. A NO stress was later applied for 24 hours using an NO donor (NOC-5) integrated in the culture medium. Finally, the product was again applied on the explants and in the culture medium for two days.
# Counting was done using photos (50 photos/case) by filtering the colours.
# elastin [6] = assay: Elastin synthesis in fibroblasts under NO stress, ELISA; type: cell-based; details: Homo sapiens, Fibroblast, NHF, compared to the control case following the same NO, read-out: protection of elastin synthesis
# Fibromodulin = Fibromodulin synthesis in NHF, ELISA; type: cell-based, human; details: two days
# Description: (§1) Principle: NHFs were put into contact with the product of the invention for two days (fibromodulin) or three days (dermatopontin). The supernatants were then assayed using ELISA tests. At the same time, the number of cells was quantified using the Hoechst method.
# Dermatopontin = Dermatopontin synthesis in NHF, ELISA; type: cell-based, human; details: three days
# Description: as §1
# MMP1 = MMP1 synthesis in NHF after UVA, ELISA; type: cell-based, human; details: 24h before and 24h after UVA
# Description: Principle: NHFs were put into contact with the product of the invention for 24h, and then were radiated with UVA rays to trigger an experimental increase in MMP1 synthesis. The cells once again received the product for 24h and the supernatants were assayed using ELISA tests. At the same time, the number of cells was quantified using the Hoechst method.
# Cathepsin-S = Cathepsin-S in NHF under NO stress, ELISA; type: cell-based, human; details: NO stress (NOC-5)
# Description: Principle: NHFs were put into contact with the invention product for 24h then were subjected to NO stress. NO donor, NOC-5, was introduced in the culture medium. At the end of a second 24h contact with the zerumbone extract, a cathepsin-S assay was performed using ELISA. At the same time, the number of cells was quantified using the Hoechst method.
# elastase = assay: Dermal destruction by proteases in skin explants, elastase; details: 18ppm of zerumbone co-injected with the protease; five days at 37°C; confocal microscope
# Description: Principle: Once prepared, skin explants (person, abdominal skin) received an injection of elastase or collagenase that could proteolyse 30 µmol/min of elastin or collagen. In another case, the invention product (titrated at 18ppm of zerumbone) was co-injected with the protease to assess its ability to inhibit the proteolysis of constituents of the dermis, and thus of protection of the dermis. After five days of incubation at 37°C, the result was observed through a confocal microscope and compared to what was obtained in the case without protease at the same depth (60 µm).
compound,measurement,setting,value
"C/C1=C\CC(C)(C)/C=C/C(=O)/C(C)=C/CC1 [Zerumbone, 2E, 6E, 9E-Humulatrien-8-one]",[G3PDH],"Human preadipocytes [1]; 0.5ppm, 10 days",144 +/- 15 mU/ 10^6 cell
same,[G3PDH],"Human preadipocytes [1]; 1ppm, 10 days",106 +/- 14 mU/ 10^6 cell
same,[G3PDH],"Human preadipocytes [1]; 3ppm, 10 days",30 +/- 2 mU/ 10^6 cell
same,G3PDH activity and human preadipocytes differentiation,Human preadipocytes [1]; 5 ppm of extract,complete inhibition
same,[G3PDH],"Human preadipocytes [1]; 5ppm, 10 days",15 +/- 3 mU/ 10^6 cell
same,inhibition at 0.5 ppm,"Human preadipocytes [1]; Homo sapiens, 240 h, 0.5ppm, 10 days, read-out: [G3PDH] % Var / control",18%
same,inhibition at 1 ppm,"Human preadipocytes [1]; Homo sapiens, 240 h, 1ppm, 10 days, read-out: [G3PDH] % Var / control",39%
same,inhibition at 3 ppm,"Human preadipocytes [1]; Homo sapiens, 240 h, 3ppm, 10 days, read-out: [G3PDH] % Var / control",83%
same,inhibition at 5 ppm,"Human preadipocytes [1]; Homo sapiens, 240 h, 5ppm, 10 days, read-out: [G3PDH] % Var / control",91%
same,[TG],Human preadipocytes [2]; 3ppm,3562 +/- 233 µ U/ 10^6 cell
same,[TG],Human preadipocytes [2]; 5ppm,2966 +/- 128 µ U/ 10^6 cell
same,inhibition at 3 ppm,"Human preadipocytes [2]; Homo sapiens, 240 h, 3ppm, read-out: [TG] % Var / control",15%
same,inhibition at 5 ppm,"Human preadipocytes [2]; Homo sapiens, 240 h, 5ppm, read-out: [TG] % Var / control",29%
same,activation at 6 ppm,"Mature human adipocytes [3]; 24 h, contact time 1 day",72%
same,activation at 6 ppm,"Mature human adipocytes [3]; 48 h, contact time 2 days",141%
same,activation at 6 ppm,"Mature human adipocytes [3]; 72 h, contact time 3 days",246%
same,activation at 6 ppm,Mature human adipocytes [4],0%
same,[Adiponectin],adiponectin; 2ppm,221.4 +/- 24.5 ng/10^E6 cell
same,[Adiponectin],adiponectin; 6ppm,19.0 +/- 0.6 ng/10^E6 cell
same,activation at 2 ppm,"adiponectin; Homo sapiens, 72 h, 2ppm, read-out: [Adiponectin] % Var / control",45%
same,activation at 6 ppm,"adiponectin; Homo sapiens, 72 h, 6ppm, read-out: [Adiponectin] % Var / control",95%
same,[HO-1],"HO-1; 3ppm, adipocytes in the course of differenciation (10days)",51658 +/- 7985 ng/ 10^6 cell
same,[HO-1],"HO-1; 3ppm, mature adipocytes (48h)",70229 +/- 10638 ng/ 10^6 cell
same,[HO-1],"HO-1; 5ppm, adipocytes in the course of differenciation (10days)",67243 +/- 11428 ng/ 10^6 cell
same,[HO-1],"HO-1; 5ppm, mature adipocytes (48h)",96700 +/- 4548 ng/ 10^6 cell
same,activation at 3 ppm,"HO-1; 240 h, 3ppm, adipocytes in the course of differenciation (10days)",29%
same,activation at 5 ppm,"HO-1; 240 h, 5ppm, adipocytes in the course of differenciation (10days)",68%
same,activation at 3 ppm,"HO-1; 3ppm, mature adipocytes (48h)",142%
same,activation at 5 ppm,"HO-1; 5ppm, mature adipocytes (48h)",233%
same,Elastin,"elastin [5]; cream and culture medium, NO stress (NOC-5) 24 hours",2.41 ± 1.40 UCA
same,Elastin % Variation,elastin [5]; versus Control NO (Reference 2),+104%; p<0.01
same,activation at 5 ppm,elastin [6],179%
same,Fibromodulin,Fibromodulin; 5 ppm,51.4 ± 13.4 ng/106cell.
same,activation at 5 ppm,"Fibromodulin; Homo sapiens, 48 h, read-out: Fibromodulin % Variation",268%
same,Dermatopontin,Dermatopontin; 5 ppm,2540 ± 361 ng/106cell.
same,activation at 5 ppm,"Dermatopontin; Homo sapiens, 72 h, read-out: Dermatopontin % Variation",137%
same,MMP1,MMP1; 5 ppm,691 ± 225 ng/106cell.
same,inhibition at 5 ppm,"MMP1; Homo sapiens, Fibroblast, light or radiation study, read-out: MMP1 % Variation",51%
same,Cathepsin-S,Cathepsin-S; 5 ppm,290 ± 40 pg/106cell.
same,inhibition at 5 ppm,"Cathepsin-S; Homo sapiens, Fibroblast, read-out: Cathepsin-S % Variation",34%
same,integrity of the dermis under elastase stress,elastase,retains its integrity
